Values of other authors as cited in patent US20090196914A1, “LIPOSOMAL L-CARNITINE” (priority 2002, published 2009).

Settings: oral drug

For `CCC(=O)O[C@H](CC(=O)[O-])C[N+](C)(C)C` [Propionyl-L-carnitine], the bioavailability is given as 15%.
